In ChEMBL document CHEMBL1759904, “Synthesis and application of a bromomethyl substituted scaffold to be used for efficient optimization of anti-virulence activity” (Eur J Med Chem, 2011):
Active and inactive are the calls of the source. No cut-off for these calls is given here.

Legend:
Escherichia coli [1] = experiment: Antibacterial activity against Escherichia coli UTI89 assessed as inhibition of biofilm formation at 200 uM after 24 hrs; assay type: functional; settings: for inhibition at 200 µM: UTI89, 24 h
Escherichia coli [2] = experiment: Antibacterial activity against Escherichia coli UTI89 assessed as inhibition of biofilm formation after 24 hrs; assay type: functional, organism-based; settings: UTI89, 24 h
HeLa = experiment: Cytotoxicity against human HeLa cells after 24 hrs by calcein AM based spectrophotometric analysis; assay type: cell-based
Escherichia coli [3] = experiment: Antibacterial activity against Escherichia coli UTI89 assessed as number of wells with agglutination by hemagglutinination assay in presence of 500 uM pilicide; assay type: functional

EC50 (Escherichia coli [2]) [µM] | SMILES | inhibition at 200 µM (Escherichia coli [1]) [%] | Activity (HeLa) | Activity (Escherichia coli [3]) | inhibition (Escherichia coli [1])
 | O=C(O)[C@@H]1CSc2c(-c3cccc(C(F)(F)F)c3)c(CN3CCCCC3)cc(=O)n21 | 30 |  |  | 
43 | O=C(O)[C@@H]1CSc2c(C3CC3)c(Cc3cccc(OCc4ccc(F)cc4)c3)cc(=O)n21 | 76 | Non-toxic |  | 
37 | O=C(O)[C@@H]1CSc2c(-c3cccc(C(F)(F)F)c3)c(COc3cccc4ccccc34)cc(=O)n21 | 72 | Non-toxic | 5 | 
9 | COc1ccc2cc(Cc3cc(=O)n4c(c3-c3cccc(C(F)(F)F)c3)SC[C@H]4C(=O)O)ccc2c1 | 93 | Non-toxic | 5.5 | 
 | O=C(O)[C@@H]1CSc2c(C3CC3)c(Cc3ccc4[nH]ccc4c3)cc(=O)n21 | 37 |  |  | 
 | COc1ccc2cc(Cc3cc(=O)n4c(c3C3CC3)SC[C@H]4C(=O)O)ccc2c1 |  |  |  | inactive
 | O=C(NCc1cc(=O)n2c(c1C1CC1)SC[C@H]2C(=O)O)c1ccccc1 |  |  |  | inactive
 | O=C(O)[C@@H]1CSc2c(C3CC3)c(CNS(=O)(=O)c3cccc4ccccc34)cc(=O)n21 |  |  |  | inactive
 | O=C(NCc1cc(=O)n2c(c1-c1cccc(C(F)(F)F)c1)SC[C@H]2C(=O)O)c1ccccc1 |  |  |  | inactive
17 | O=C(O)[C@@H]1CSc2c(-c3cccc(C(F)(F)F)c3)c(Cc3cccc4ccccc34)cc(=O)n21 | 92 | Non-toxic | 5 | 
189 | O=C(O)[C@@H]1CSc2c(C3CC3)c(Cc3cccc4ccccc34)cc(=O)n21 | 54 | Non-toxic | 7 | 
 | O=C(O)[C@@H]1CSc2c(-c3cccc(C(F)(F)F)c3)c(CN3CCOCC3)cc(=O)n21 |  |  |  | inactive
 | O=C(O)[C@@H]1CSc2c(C3CC3)c(CN3CCCCC3)cc(=O)n21 |  |  |  | inactive
130 | O=C(O)[C@@H]1CSc2c(-c3cccc(C(F)(F)F)c3)c(CN3CCc4ccccc4C3)cc(=O)n21 | 84 |  |  | 
 | O=C(O)[C@@H]1CSc2c(C3CC3)c(COc3ccccc3)cc(=O)n21 | 43 |  |  | 
21 | O=C(O)[C@@H]1CSc2c(-c3cccc(C(F)(F)F)c3)c(COc3ccccc3)cc(=O)n21 | 80 | Non-toxic |  | 
3 | O=C(O)[C@@H]1CSc2c(-c3cccc(C(F)(F)F)c3)c(Cc3cccc(OCc4ccc(F)cc4)c3)cc(=O)n21 | 75 | Non-toxic |  | 
32 | O=C(O)[C@@H]1CSc2c(C3CC3)c(COc3cccc4ccccc34)cc(=O)n21 | 96 | Non-toxic | 5.5 | 
 | O=C(NCc1cc(=O)n2c(c1C1CC1)SC[C@H]2C(=O)O)c1cccc2ccccc12 |  |  |  | inactive
 | O=C(O)[C@@H]1CSc2c(C3CC3)c(CN3CCc4ccccc4C3)cc(=O)n21 |  |  |  | inactive
130 | O=C(NCc1cc(=O)n2c(c1-c1cccc(C(F)(F)F)c1)SC[C@H]2C(=O)O)c1cccc2ccccc12 | 65 |  |  | 
 | O=C(O)[C@@H]1CSc2c(C3CC3)c(CNS(=O)(=O)c3ccccc3)cc(=O)n21 |  |  |  | inactive
 | O=C(O)[C@@H]1CSc2c(C3CC3)c(CN3CCOCC3)cc(=O)n21 |  |  |  | inactive
30 | O=C(O)[C@@H]1CSc2c(-c3cccc(C(F)(F)F)c3)c(Cc3ccc4[nH]ccc4c3)cc(=O)n21 | 97 | Non-toxic | 5 | 
38 | O=C(O)[C@@H]1CSc2c(-c3cccc(C(F)(F)F)c3)c(CNS(=O)(=O)c3cccc4ccccc34)cc(=O)n21 | 91 | Non-toxic |  | 
 | O=C(O)[C@@H]1CSc2c(-c3cccc(C(F)(F)F)c3)c(CNS(=O)(=O)c3ccccc3)cc(=O)n21 | 48 |  |  | 
